Values of other authors as cited in patent US20200068939A1, “Nutritional compositions to increase and sustain blood ketone levels” (JHO Intellectual Property Holdings LLC, priority 2018, published 2020).

Experiments:
[1] = acute ingestion, 15 min to 6 hr
[2] = not given; remark: listed apart in the source

SMILES	stimulation of ketone production (2.5 mg/kg given at breakfast)	plasma free fatty acids (2.5, 5.0 mg/kg given at breakfast)	bHB in short-term nutritional ketosis [1]	blood βHB concentration at the start of the OGTT ([2]; 482 mg/kg 30 min before glucose bolus)	blood βHB concentration at the end of the OGTT ([2]; 482 mg/kg 30 min before glucose bolus, end of 2 h test)	reduction in 2 h AUC for serum FFAs ([2]; 482 mg/kg, 2 h)	reduction of plasma glucose AUC ([2]; 482 mg/kg, over the 2 h period)
Cn1c(=O)c2c(ncn2C)n(C)c1=O [Caffeine]	+88%	raised plasma free fatty acids					
C[C@@H](O)CCOC(=O)C[C@@H](C)O [KME, (R)-3-hydroxybutyl (R)-3-hydroxybutyrate]			> 1 mM	~3 mM	~1.5 mM	44%	16%
